Test results published in US9782412B2, “Preventive and/or therapeutic agent of immune disease” (TAIHO PHARMACEUTICAL CO., LTD., priority 2015, dated 2017).

Legend:
[1] = test system: EGFR/BTK; assay: BTK inhibition selectivity compared with EGFR kinase inhibitory activity (in vitro); type: biochemical, human; settings: ratio of IC50 values
Method: Therefore, a biotinated peptide (biotin-[…]) was produced by referring to the amino acid sequence of the peptide. The purified recombinant human EGFR protein used in the test was purchased from Carna Biosciences, Inc.
Regarding the measurement of the inhibitory activity of the compounds, firstly, the compounds of the present invention were diluted stepwise with DMSO. […] The reaction was terminated by adding EDTA thereto so as to obtain a final concentration of 24 mM. Subsequently, a detection liquid containing Eu-labeled anti-phosphorylated tyrosine antibody PT66 (PerkinElmer, Inc.) and SureLight APC-SA (PerkinElmer, Inc.) was added thereto, and the system was left to stand for 2 hours or longer at room temperature.

[2] = biological target: T1, recombinant human BTK protein (Homo sapiens, UniProt Q06187); assay: Measurement of BTK inhibitory activity (in vitro); type: biochemical; settings: ATP 45 μM, 40 minutes at 25° C.
T1 construct: purchased Carna Biosciences, Inc
T1 sequence (Q06187 whole entry): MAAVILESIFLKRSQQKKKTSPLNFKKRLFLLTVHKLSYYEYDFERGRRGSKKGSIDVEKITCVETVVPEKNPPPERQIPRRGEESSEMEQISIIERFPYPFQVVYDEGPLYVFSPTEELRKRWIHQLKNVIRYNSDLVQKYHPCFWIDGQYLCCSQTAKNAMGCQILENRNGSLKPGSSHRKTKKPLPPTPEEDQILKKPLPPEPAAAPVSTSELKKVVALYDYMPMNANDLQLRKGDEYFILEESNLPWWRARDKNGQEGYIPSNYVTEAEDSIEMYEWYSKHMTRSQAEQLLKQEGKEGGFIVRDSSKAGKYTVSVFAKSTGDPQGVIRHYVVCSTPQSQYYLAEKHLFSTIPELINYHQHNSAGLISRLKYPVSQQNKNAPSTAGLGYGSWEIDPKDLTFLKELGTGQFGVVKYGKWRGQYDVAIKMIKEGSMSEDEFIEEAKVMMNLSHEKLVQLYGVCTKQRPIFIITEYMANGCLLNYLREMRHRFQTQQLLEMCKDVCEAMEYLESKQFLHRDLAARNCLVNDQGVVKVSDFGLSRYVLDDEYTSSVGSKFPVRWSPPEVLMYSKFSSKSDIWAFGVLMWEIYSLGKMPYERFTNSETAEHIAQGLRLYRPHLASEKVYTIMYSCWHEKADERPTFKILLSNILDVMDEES
Excerpt: Regarding the setting of the conditions for a method for measuring the inhibitory activity of a compound against BTK kinase activity in vitro, it is described in the consumable reagent supplies price list for LabChip (registered trademark) series of PerkinElmer, Inc. that FL-PEPTIDE 2 corresponds to a substrate peptide for the measurement of BTK kinase activity. Therefore, FL-PEPTIDE 2 was used as a substrate. The purified recombinant human BTK protein used in the test was purchased from Carna Biosciences, Inc.
Regarding the measurement of the inhibitory activity of the compounds, firstly, the compounds of the present invention were diluted stepwise with DMSO. Subsequently, BTK protein, a substrate peptide (final concentration was 1 μM), magnesium chloride (final concentration was 10 mM), ATP (final concentration was 45 μM), and a DMSO solution of the compounds of the present invention (final concentration of DMSO was 5%) were added to a buffer solution for kinase reaction (20 mM HEPES (pH 7.5), 2 mM dithiotheitol, 0.01% Triton X-100), and after the solution was incubated for 40 minutes at 25° C., a kinase reaction was carried out. The reaction was terminated by adding EDTA thereto so as to obtain a final concentration of 30 mM. Finally, a substrate peptide that was not phosphorylated (S) and a phosphorylated peptide (P) were separated and detected by microchannel capillary electrophoresis with a LabChip EZ Reader II (PerkinElmer, Inc.).

[3] = biological target: T2, phosphorylated BTK protein in Ramos cells (Homo sapiens, UniProt Q06187); assay: Inhibitory activity against B-cell activation using Ramos cells (BTK phosphorylation); type: cell-based; settings: anti-human IgM stimulation, pY223 Western blotting, read-out: Phosphorylated BTK inhibitory concentration (IC50, (nM))
T2 construct: endogenous in cells; host or cells: Ramos cells
T2 sequence (Q06187 whole entry): as above
Method: The human B-cell lymphoma-derived cell line, Ramos cells were suspended in RPMI1640 medium, and then the cells were inoculated in a culture plate at a concentration of 2.0×10^6 (cells/well). The cells were cultured in a CO2 incubator (Sanyo Electric Biomedical Co., Ltd.) at 37° C. for 12 hours. […] Then, 10 minutes of stimulation was provided with Goat F(ab′)2 anti-human IgM antibody-UNLB (southern biotech Corp.). Thereafter, the cells were harvested, and 50 μL of (a cell extract (NP-40; Invitrogen, Inc.) containing 1×protease inhibitor (Hoffmann-La Roche AG) and 1×phosphatase cocktail inhibitor (Sigma-Aldrich Co.)) was added to the cell pellets. The cell pellets were left to stand for 10 minutes on ice. The amount of protein in the collected cell extract was quantitatively analyzed by a DC protein assay (Bio-Rad Laboratories, Inc.), and 20 μg of proteins per lane was applied to a Criterion TGX™ (Bio-Rad Laboratories, Inc.). After electrophoresis was performed, Western blotting was performed with Trans-Blot™ Turbo™ (Bio-Rad Laboratories, Inc.). Thereafter, phosphorylated BTK protein and BTK protein were detected with LAS4000 (GE Healthcare, Inc.) with a BTK phosphor (pY223) antibody (EPITOMICS Inc.) and a BTK antibody (Abcam, plc.).

[4] = test system: RBL-2H3 cells; assay: Inhibitory activity against allergic reaction using RBL-2H3 cells (PGD2 production); type: cell-based, rat; settings: Rattus norvegicus, RBL-2H3, RBL-2H3 cells, anti-DNP IgE / DNP-BSA; read-out: PGD2 production inhibitory concentration (IC50; (nM))
Method: Rat basophilic leukemia cells, RBL-2H3, were suspended in MEM medium containing 10% FBS, and then the cells were inoculated in a culture plate, and cultured in a CO2 incubator (Sanyo Electric Biomedical Co., Ltd.) at 37° C. for 12 hours. After a culture supernatant was removed and the cells were washed, an anti-DNP-mouse IgE (Alpha Diagnostic Inc.) solution was added thereto, and the cells were cultured in the CO2 incubator for 1 hour. After a culture supernatant was removed and the cells were washed, an MEM medium was added thereto.
Further, a DNP-BSA (LSL, Inc.) solution was added thereto and the cells were cultured in the CO2 incubator for 15 minutes. A culture supernatant was collected and reacted, with PGD2-MOX EIA kit (Cayman Chemical Inc.) on the basis of the protocol attached thereto, and absorbance was measured by SUNRISE RAINBOW THERMO (TECAM Inc.).

[5] = Influence on body weight of SD rat by repeated administration; type: in vivo; settings: 750 mg/kg orally once a day, two weeks
Method: The rats were grouped as follows, with four animals in each group, by a random classification method such that the average body weights of the respective groups would be almost uniform (Day 1).
The body weight change (BWC) was used as an index indicating the systemic toxicity caused by the compound administration. The BWC was calculated by the following formula. BWC (%)=([(Rat body weight on 14 days after the administration)−(Rat body weight at the time of grouping)]/(Rat body weight at the time of grouping))×100
The relative body weight change ratios in the each compound-administered groups were calculated by the following formula when the BWC in the vehicle-administered group was set as 1, and the results are indicated in Table 25. Relative body weight change ratio (%)=(BWC in the compound-administered group)/BWC in the vehicle-administered group)×100

[6] = test system: TNP-IgE mice; assay: Mouse antigen-induced dermatitis model; type: in vivo; settings: for Ear swelling control ratio (%): 30 minutes before allergen, 2 hours after antigen; for ear swellings induced by the allergen application: from low dose, compared with Reference compound 1
Excerpt: Type I allergy models accompanied by a skin symptom (a dermatitis model) were produced, with TNP-IgE mice (CLEA Japan, Inc.). The mice are genetically modified BALB/c mice that constantly produce an IgE specific to hapten TNP (trinitrophenol) which is widely used as an allergen (antigen). It is possible to induce an allergic reaction in the mice, only by administering an allergen, without carrying out an immunization. […] An average value of thickening values of both ears was obtained as a value of an individual (provided that a previous value before the allergen application was 0 mm).
Ear swelling control ratio (%) was calculated by the following formula. Ear swelling control ratio (%)=(1−(Average value of ear thickening of compound administered group)/(Average value of ear thickening of vehicle administered group))×100

[7] = test system: A431 cells/TMD8 cells; assay: Proliferation inhibitory activity against cell lines expressing BTK and EGFR, comparison of selectivity; type: cell-based, human; settings: cells cultured three days with compound, CELLTITER GLO
Excerpt: TMD8 cells, which are of a diffuse large B-cell lymphoma cell line expressing BTK, were suspended in RPMI1640 medium (Life Technologies Corp.) containing 10% fetal bovine serum. A431 cells, which are of an EGFR-overexpressing, highly activated human epidermoid carcinoma cell line, were suspended in DMEM, high glucose medium (Life Technologies Corp.) containing 10% fetal bovine serum. The cell suspensions were inoculated into each well of 384-well flat-bottomed microplates, and the cells were cultured for one day at 37° C. in an incubator containing 5% carbon dioxide gas. […] A DMSO solution of the test compounds was diluted with the medium used in the suspension of the each cell, and this was added to each of the wells of the cell culture plates such that the final concentration of DMSO would be 0.2%. The cells were further cultured for three days at 37° C. in an incubator containing 5% carbon dioxide gas. […] Proliferation inhibition ratio (%)=(C−T)/(C−C0)×100
T: Luminescence intensity of a well in which the test compound was added
C: Luminescence intensity of a well in which the test compound was not added
C0: Luminescence intensity of a well measured before the addition of the test compound
When a comparison is made between the cell proliferation inhibitory activity against A431 cells that depends on the EGFR proliferation signaling and the cell proliferation inhibitory activity against TMD8 cells that depends on the BTK proliferation signaling, the influence of the respective kinases at a cellular level is able to be evaluated. That is, when the “A431 cell proliferation inhibition ratio/TMD8 cell proliferation inhibition ratio” is calculated, it is contemplated that as the value of the ratio is larger, the selectivity to BTK over EGFR in the cells is higher.

| Compound | EGFR inhibitory activity IC50 value (nM)/BTK inhibitory activity IC50 value (nM) [1] | IC50 [2] [nM] | Ear swelling control ratio (%) ([6]; 3 mg/kg oral) | further results |
| --- | --- | --- | --- | --- |
| C=CC(=O)N1CCC[C@@H](n2nc(C(=O)Nc3nc4cc(CCOC)ccc4o3)c3c(N)ncnc32)C1 [Example 8, (R)-1-(1-acryloylpiperidin-3-yl)-4-amino-N-(5-(2-methoxyethyl)benzo[d]oxazol-2-yl)-1H-pyrazolo[3,4-d]pyrimidine-3-carboxamide] | 22.9 | 1.27 | – | – |
| CN(C)C/C=C/C(=O)N1CCC[C@@H](n2nc(C(=O)Nc3nc4cc(-c5cccs5)ccc4o3)c3c(N)ncnc32)C1 [Example 21, (R,E)-4-amino-N-(5-(thiophen-2-yl)benzo[d]oxazol-2-yl)-1-(1-(4-(dimethylamino)but-2-enoyl)piperidin-3-yl)-1H-pyrazolo[3,4-d]pyrimidine-3-carboxamide] | 147.4 | 0.777 | – | – |
| C=C(C)C(=O)N1CCC[C@@H](n2nc(C(=O)Nc3nc4cc(F)ccc4o3)c3c(N)ncnc32)C1 [Example 11, (R)-4-amino-N-(5-fluorobenzo[d]oxazol-2-yl)-1-(1-methacryloylpiperidin-3-yl)-1H-pyrazolo[3,4-d]pyrimidine-3-carboxamide] | 1294.6 | 2.14 | – | – |
| C=CC(=O)N1CCC[C@@H](n2nc(C(=O)Nc3nc4cc(F)ccc4o3)c3c(N)ncnc32)C1 [Example 12, (R)-1-(1-acryloylpiperidin-3-yl)-4-amino-N-(5-fluorobenzo[d]oxazol-2-yl)-1H-pyrazolo[3,4-d]pyrimidine-3-carboxamide] | – | – | 80 | IC50 [3]: 0.18 nM; IC50 [4]: 15 nM; Relative body weight change ratio (%) [5]: 91.2%; Ear swelling control ratio (%) ([6]; 1 mg/kg oral): 64%; ear swellings induced by the allergen application [6]: suppressed equivalently or strongly ear swellings |
| CN(C)C/C=C/C(=O)N1CC(n2cc(C(=O)Nc3nc4cc(Cl)ccc4o3)c3c(N)ncnc32)C1 [Example 47, (E)-4-amino-N-(5-chlorobenzo[d]oxazol-2-yl)-7-(1-(4-(dimethylamino)but-2-enoyl)azetidin-3-yl) 7H-pyrrolo[2,3-d]pyrimidine-5-carboxamide] | 20.4 | 7.34 | – | – |
| C=CC(=O)N1CCC[C@@H](n2nc(C(=O)Nc3nc4cc(Cl)ccc4o3)c3c(N)ncnc32)C1 [Example 1, (R)-1-(1-acryloylpiperidin-3-yl)-4-amino-N-(5-chlorobenzo[d]oxazol-2-yl)-1H-pyrazolo[3,4-d]pyrimidine-3-carboxamide] | – | – | 81 | IC50 [4]: 37 nM; Ear swelling control ratio (%) ([6]; 1 mg/kg oral): 66%; ear swellings induced by the allergen application [6]: suppressed equivalently or strongly ear swellings |
| CC#CC(=O)N1CCC[C@@H](n2nc(C(=O)Nc3nc4ccccc4o3)c3c(N)ncnc32)C1 [Example 22] | – | 14.2 | – | – |
| C=CC(=O)N1CCC[C@@H](n2nc(C(=O)Nc3nc4cc(C#N)ccc4o3)c3c(N)ncnc32)C1 [Example 6, (R)-1-(1-acryloylpiperidin-3-yl)-4-amino-N-(5-cyanobenzo[d]oxazol-2-yl)-1H-pyrazolo[3,4-d]pyrimidine-3-carboxamide] | – | 0.738 | 45 | A431 cell proliferation inhibition ratio/TMD8 cell proliferation inhibition ratio [7]: 2786.0 |
| C=CC(=O)N1CC(n2nc(C(=O)Nc3nc4cc(Cl)ccc4o3)c3c(N)ncnc32)C1 [Example 45, 1-(1-acryloylazetidin-3-yl)-4-amino-N-(5-chlorobenzo[d]oxazol-2-yl)-1H-pyrazolo[3,4-d]pyrimidine-3-carboxamide] | – | 1.25 | – | – |
| C/C=C/C(=O)N1CCC[C@@H](n2nc(C(=O)Nc3nc4ccccc4o3)c3c(N)ncnc32)C1 [Example 14, (R,E)-4-amino-N-(benzo[d]oxazol-2-yl)-1-(1-(but-2-enoyl)piperidin-3-yl)-1H-pyrazolo[3,4-d]pyrimidine-3-carboxamide] | 128.1 | 14.1 | – | A431 cell proliferation inhibition ratio/TMD8 cell proliferation inhibition ratio [7]: >1400.6 |
